# Laboratory results reported in patent publication US20230148226A1, “COMPOSITIONS OF STABLE FORMULATIONS OF VARENICLINE SALT OR BASE FORM WITH CONTROL ON NITROSO IMPURITIES” (The Texas A&M University System, priority 2021, published 2023).
# Experiment: N-Nitroso-varenicline content in individual component (LCMS)
# Type: physicochemical
# Settings: not given
# Description: Liquid chromatography—mass spectrometry (LCMS) method development for NVC. Ultra-pressure liquid chromatography (UPLC) was used to detect NVC in samples. An ACQUITY™ UPLC™ H-Class PLUS System was utilized with the following configuration. The needle was washed with 80:20 methanol:water and the sample temperature was 10° C. The injection volume was 25 μL and a WATERS™ Acquity UPLC BEH Phenyl 1.7 μm 2.1×100 mm column was used having a column temperature of 30° C. Mobile phase A was 0.1% formic acid in water, and mobile phase B was acetonitrile. A 0.5 mL/min flow rate was utilized. Table 1 and Table 2, shown below, illustrate gradient method parameters and LCMS method validation for NVC, respectively.
# Screening excipients for varenicline. Excipients were screened to determine which excipients were promoting nitroso impurities. Varenicline and excipients were physically mixed in 1:1 weight ratio and exposed to 40° C./75% RH for 4 weeks (Table 3 and Table 4).
row,Compound,N-Nitroso-varenicline
1,"7,8,9,10-tetrahydro-6,10-methano-6H-pyrazino(2,3-h)(3)benzazepinex [Varenicline Tartrate, reference compound]",0 ng
2,O.OC[C@H]1O[C@@H](O[C@H]2[C@H](O)[C@@H](O)C(O)O[C@@H]2CO)[C@H](O)[C@@H](O)[C@H]1O (stereo partly drawn) [Lactose Monohydrate],0 ng
3,Magnesium Stearate,0 ng

# Experiment: not given
# Settings: FDA recommended limit; cited from earlier work
row,Compound,Acceptable daily intake limit (FDA)
1,"CCN(CC)N=O [NDEA, N-nitrosodiethylamine]",26.5 ng/day
2,"CC(C)N(N=O)C(C)C [NDIPA, N-nitrosodiisopropylamine]",26.5 ng/day
3,"CN(C)N=O [NDMA, N-nitrosodimethylamine]",96 ng/day
4,"CCN(N=O)C(C)C [NIPEA, N-nitrosoisopropylethyl amine]",26.5 ng/day
5,"CN(CCCC(=O)O)N=O [NMBA, N-nitroso-N-methyl-4-aminobutanoic acid]",96 ng/day
6,"O=NN1CC2CC(C1)c1cc3nccnc3cc12 [NVC, N-nitroso-varenicline]",37 ng/day
